Test results taken from patent US10822448B2, “Dynamic urea bonds with fast hydrolytic kinetics for polymers” (THE BOARD OF TRUSTEES OF THE UNIVERSITY OF ILLINOIS, priority 2016, dated 2020).
Where two headings read alike, the source gives them in different places.

Tests used:
[1] = Equilibrium (binding) constant Keq of aryl hindered ureas by 1H NMR amine exchange in d-chloroform; format: physicochemical; settings: room temperature
Procedure: (§1) We designed a set of aryl ureas with distinguished electronic effect on the conjugated phenyl ring (Table 1) and the corresponding Keq were studied by ^1H NMR through exchanging of the urea with a set of bulky amines in d-chloroform. The equilibrium constant of the aryl urea bond increases as the bulkiness of the substitution on the amine decreases. […] The dissociation constant k−1 was measured by exchange study of the ureas with another amine and calculated through linear regression. Remarkably, the amine exchange of the tBEU could reach equilibrium within 20 minutes at room temperature in d-chloroform. The k−1 of tBEU with aryl substitution is two orders of magnitudes larger than the reported aliphatic urea (Table 1) and among the fastest dynamic chemistries reported so far. […] The substituent on the aryl group can remotely affect the HUB through electronic effects, thus offering an extra tunability on the Keq and k−1 of the bond, which is unprecedented in hindered urea chemistry. The large value of Keq also makes it possible to prepare large molecular weight aromatic hindered urea materials with quantitative conversion.
We designed a set of aryl ureas with distinguished electronic effect on the conjugated phenyl ring (Table 1) and the corresponding Keq were studied by ^1H NMR through exchanging of the urea with a set of bulky amines in d-chloroform. The equilibrium constant of the aryl urea bond increases as the bulkiness of the substitution on amine increases. […] The dissociation constant k−1 was measured by exchanging of the ureas with another amine and calculated through linear regression. […] In addition, the calculated k1 is larger than 10^5 M^−1·h^−1 indicating the urea formation can be completed within seconds upon mixing. […] The large value of Keq make it possible to prepare chemically stable aromatic hindered urea materials with quantitative conversion.
The binding constant (Keq) was measured through indirect method used previously. […] Briefly, the of Keq of the equilibrium was measured in d-chloroform and the Keq of each aryl urea was calculated accordingly. […]

[2] = Dissociation constant k−1 of hindered ureas by amine exchange experiment (1H NMR, d-chloroform); format: physicochemical; settings: room temperature
Procedure: as §1
The dissociation constant (k−1) of corresponding hinder ureas were determined through exchange experiment. Briefly, a d-chloroform (550 μL) solution of tBEU (0.050 mmol, ˜12 mg) was mixed with N-methyl-t-butyl-amine (1 eq). Then the mixture was monitored with ^1H NMR. The ratio of the two ureas was quantified by integration of the methyl/methylene hydrogen adjacent to the nitrogen atom. Linear regression of ln
[formula] ˜t giving the slope as the dissociation constant (k−1).
The method for tBEU was used except that 10 equivalent t-butylamine or n-butyl amine was used.
The dynamic behavior of the aromatic urea was then investigated by exchanging the tBEU with methyl-t-butylamine and the relative concentration of all species were monitored by ^1H NMR. […] In contrast, the aliphatic tBEU requires several days to reach equilibrium at 37° C. Through linear regression of the exchange component, the dissociate rate of the ureas were determined to be 5-12 h^−1 at room temperature, which is two order of magnitude higher than the aliphatic counterpart. […] SeeYing, H.; Zhang, Y.; Cheng, J. Nat. Commun. 2014, 5, 3218, which is incorporated by reference herein in its entirety.

[3] = HPLC analysis of Ph-tBEU hydrolysis kinetics in 1:1 DMSO-aqueous buffer at various pH; format: physicochemical
Procedure: FIGS. 1A to 1C depict the hydrolysis of phenyl-N-tetrabutyl-N-ethyl urea (Ph-tBEU) in 1:1 DMSO-aqueous buffer at various pH conditions at 37° C. as analyzed by HPLC. […] The dotted line marks the measured k−1 of the Ph-tBEU under the same condition through exchange with 10 equivalents of t-butyl amine.
The hydrolysis of aryl tBEU under different pH conditions was then studied in 1:1 DMSO-aqueous buffer solution at 23° C. […] Kinetic analysis of the hydrolytic kinetics confirmed that the overall urea degradation rate is determined by the urea dissociation and can be expressed as
HPLC Analysis of pH-tBEU Hydrolysis Kinetics in 50:50 DMSO-H2O at 37° C.
Ph-tBEU stock solution was prepared in DMSO as 2 mg/mL. The solution was diluted with 1:1 DMSO/buffer to 20 μg/mL ([…]) and incubated at 37° C. At specified time, the solution was analyzed by HPLC to quantify the remaining tBEU content by standard calibration curve (λabs=264 nm).
The standard sample of Ph-tBEU was prepared by diluting the stock solution with acetonitrile to a 2-fold serial dilution and analyzed instantly after preparation. The pH 1, 7, 10 buffers were prepared by adding acid/base to 1*PBS solution. pH 4 buffer was prepared by citric acid-Na2HPO4 (0.1 M). The pH of all the buffers were confirmed by pH meter prior to conducting the experiments.

[4] = aliphatic HUB, adapted from Ying et al. Nat. Commun. 2014; cited from earlier work
[5] = cited from earlier work

| Structure (SMILES) | Keq [1] [M⁻¹] | k1 (calculated as Keq × k−1) [2] [M⁻¹ s⁻¹] | k−1 (dissociation rate) [2] [h⁻¹] | apparent hydrolysis constant kobs ([3]; 23° C. as printed) [h⁻¹] | pH dependence of observed hydrolysis constant kobs ([3]; pH ranging from 3-11) | Keq [4] [M⁻¹] | time for exchange to reach equilibrium ([5]; aliphatic tBEU, 37° C.) | k−1 (dissociation rate) ([5]; reported aliphatic urea) [h⁻¹] |
| --- | --- | --- | --- | --- | --- | --- | --- | --- |
| CCN(C(=O)Nc1ccc(OC)cc1)C(C)(C)C [compound 1] | 81000 | 250 | 11.2 | – | – | – | – | – |
| CCN(C(=O)Nc1ccccc1)C(C)(C)C [compound 2, phenyl-N-tetrabutyl-N-ethyl urea] | 360000 | 889 | 8.9 | 0.17 | independent of pH | – | – | – |
| CCN(C(=O)Nc1ccc([N+](=O)[O-])cc1)C(C)(C)C [compound 3] | 6.8e+06 | 10800 | 5.7 | – | – | – | – | – |
| C=C(C)C(=O)OCCNC(=O)N(CC)C(C)(C)C [compound 4] | – | 9.17 | – | – | – | 790000 | several days | 0.042 |
